From patent US20100105688A1, “PHARMACEUTICAL COMPOSITIONS COMPRISING 3,5-DIAMINO-6-(2,3-DICHLOPHENYL)-1,2,4-TRIAZINE OR R(-)-2,4-DIAMINO-5-(2,3-DICHLOROPHENYL)-6-FLUOROMETHYL PYRIMIDINE AND AN NK1” (GLAXO GROUP LIMITED, priority 2007, published 2010)
Where two headings read alike, the source gives them in different places.

Experiments:
Male CD rats = assay: Rat MEST model (seizure threshold, CC50); type: in vivo
Procedure: This work was conducted in compliance with the Home Office Guidance on the operation of the Animals (Scientific Procedures) Act 1986 and GlaxoSmithKline ethical standards. Male CD rats (100-145 g) were supplied by Charles River, UK. Animals were group housed (6 animal per cage) with free access to food (Standard rodent chow; Harlan, UK) and water under a 12 h light/dark cycle (lights on at 0700 h). A period of at least one week between arrival at GSK and the study was allowed in all cases.
Animals were administered a test compound at the appropriate dose, route and pre-treatment time and returned to their home cage. Testing occurred in a separate room from that used for housing. Testing involved determining the threshold for tonic hindlimb extensor seizures using a Hugo Sachs Electronik stimulator which delivers a constant current of 0.3 second duration, 50 Hz, sinewave form, fully adjustable between 1 and 300 mA. Stimuli were delivered via corneal electrodes (Stean T O, Atkins A R, Heidbreder C A, Quinn L P, Trail B K, Upton N. (2005) Br J. Pharmacol. 144(5):628-35). Seizure threshold was determined using the ‘up and down’ method of Kimball et al. (1957)(Kimball A W, Burnett W T Jr, Doherty D G. (1957) Radiat Res. 7(1):1-12). The first animal tested in each group was stimulated with a current that might be expected to be close to the threshold for induction of a seizure. If a tonic seizure was not induced, then next animal in the group received a stimulus 5 mA higher. If a tonic seizure was induced, then the next animal received a stimulus 5 mA lower. This is repeated for all animals within the control (vehicle) group. In the case of groups treated with a sodium channel blocker steps of 10 to 30 mA were used.
(§1) All doses were calculated as base. ENa9 and ENa13 were dosed via the subcutaneous (s.c.) route at 1 ml/kg in a 2% v/v DMSO/saline vehicle 30 minutes prior to test. ENa7 and ENa14 were dosed orally (p.o.) in a 1% w/v methylcellulose/water vehicle at 2 ml/kg, 60 minutes before test. Compound ENK6 was dosed with via the intraperitoneal (i.p.) route 60 minutes before the test or via the s.c. route 15 minutes before test. In both cases ENK6 was dissolved in saline.
Induction of seizure is measured as an all-or-nothing effect scored as either present (+) or absent (0) for each animal. The data for each treatment group were recorded as the number of +'s and 0's at each current level employed and this information was then used to calculate the CC50 value (current required for 50% of animals to show seizure behaviour)+standard error of the mean according to the method of Kimball et al. (1957). Drug effects were calculated as the % change in CC50. Significant differences between drug-treated animals and appropriate vehicle treated groups were assessed according to the methods of Litchfield and Wilcoxon (1949). The statistical significance of differences between sodium channel blocker alone or in combination with ENK6 was assessed using a Student's t test.

[1] = Blood and brain concentrations in satellite animals of the MEST study; type: in vivo, rat; details: satellite rats; for concentration at 15 min / concentration at 30 min: rat, sc; for change of blood or brain concentration of the sodium channel blocker in the presence of ENK6: ENK6 30 mg/kg i.p.
Procedure: Satellite animals (n=3/group) received the same drugs or combinations of drugs as the test groups, and were culled at the appropriate time after dosing. Blood and brain samples were taken for analysis of the drug concentrations in these compartments.
as §1

rats = assay: FCA (Freunds Complete Adjuvant) model of inflammatory hypersensitivity to pain (weight bearing); type: in vivo, rat
Procedure: • Naïve weight bearing readings were taken. The hypersensitivity to pain was measured using the Rat incapacitance tester (Linton instruments). This instrument is serviced once a year and should be regularly calibrated • All rats then received an intraplantar injection of 100 ul of FCA (Freund's complete adjuvant) into the left hind paw. The FCA was sonicated for 15 minutes prior to use. • Approximately 23 hrs after administration of the FCA, pre-dose weight bearing readings were taken. All animals were then ranked and randomised for dosing according to their FCA window (predose difference in grams−naïve difference in grams). […] Celebrex 10 mg/kg p.o. (positive control) as appropriate according to ranking and randomisation. • Animals were assessed in the weight bearing apparatus 1 hour post dose. • The study was blind and randomised by FCA window using the Latin square method. • % reversals were calculated by using the naïve, pre-dose and post dose values as follows: % Reversal=[(Pre-dose−Post-dose)/(Pre-dose−Naïve)]×100 • Graphs and ED50 were calculated where appropriate using Prism4. • Statistical analysis was carried out using ANOVA followed by calculating the least square means using the statistical package Statistica 6.1 • From the dose response curves the ED20 was determined for the combination study • Naïve weight bearing readings were taken. The hypersensitivity to pain was measured using the Rat incapacitance tester (Linton instruments). This instrument is serviced once a year and should be regularly calibrated • All rats then received an intraplantar injection of 100 ul of FCA (Freund's complete adjuvant) into the left hind paw. The FCA was sonicated for 15 minutes prior to use. • Approximately 23 hrs after administration of the FCA, pre-dose weight bearing readings were taken. All animals were then ranked and randomised for dosing according to their FCA window (predose difference in grams−naïve difference in grams). […] See table 5 for details of the groups • Animals were assessed in the weight bearing apparatus 1 hour post dose. • The study was blind and randomised by FCA window using the Latin square method. • % reversals were calculated by using the naïve, pre-dose and post dose values as follows: % Reversal=[(Pre-dose−Post-dose)/(Pre-dose−Naïve)]×100 • Statistical analysis was carried out using ANOVA followed by calculating the least square means using the statistical package Statistica 6.1 • ED50 and ED20 values and graphs were calculated using prism5 • Naïve weight bearing readings were taken. The hypersensitivity to pain was measured using the Rat incapacitance tester (Linton instruments). This instrument is serviced once a year and should be regularly calibrated • All rats then received an intraplantar injection of 100 ul of FCA (Freund's complete adjuvant) into the left hind paw. The FCA was sonicated for 15 minutes prior to use. • Approximately 23 hrs after administration of the FCA, pre-dose weight bearing readings were taken. All animals were then ranked and randomised for dosing according to their FCA window (predose difference in grams—naïve difference in grams). Rats with FCA window less than 30 g were excluded from the study. • Animals were then dosed with the following in a fixed dose ratio of 1.25:1 according to ranking and randomisation. (Table 6) […] Graphs and ED50 were calculated where appropriate using Prism5 • Statistical analysis was carried out using ANOVA followed by calculating the least square means using the statistical package Statistica 6.1

[2] = ENK6 10 mg/kg s.c. + ENa7 1 mg/kg p.o., n = 2-3
[3] = ENK6 10 mg/kg s.c. + ENa7 3 mg/kg p.o., n = 2-3
[4] = ENK6 30 mg/kg s.c. + ENa7 1 mg/kg p.o., n = 2
[5] = ENK6 30 mg/kg s.c. + ENa7 3 mg/kg p.o., n = 2
[6] = sodium channel blocker 1 mg/kg s.c. in the presence of ENK6 (30 mg/kg i.p.)
[7] = sodium channel blocker 3 mg/kg s.c. in the presence of ENK6 (30 mg/kg i.p.)
[8] = sodium channel blocker alone, 1 mg/kg s.c., 30 minutes prior to test
[9] = sodium channel blocker alone, 3 mg/kg s.c., 30 minutes prior to test
[10] = ENK6 30 mg/kg i.p. + ENa13 1 mg/kg s.c., n = 2
[11] = ENK6 30 mg/kg i.p. + ENa13 3 mg/kg s.c., n = 2

SMILES: COc1ccc(-n2nnnc2C(F)(F)F)cc1CN[C@H]1CCCN[C@H]1c1ccccc1.Cl.Cl [ENK6, [2-Methoxy-5-(5-trifluoromethyl-tetrazol-1-yl)-benzyl]-([2S,3S]-2-phenyl-piperidin-3-yl)-amine dihydrochloride]
- effect on seizure threshold (Male CD rats; ENK6 alone, 10 mg/kg s.c., 15 minutes before testing (first experiment)): no effect on seizure threshold
- effect on seizure threshold (Male CD rats; ENK6 alone, 30 mg/kg i.p., 60 minutes before the test): no effect on seizure threshold
- effect on seizure threshold (Male CD rats; ENK6 alone, 30 mg/kg s.c., 15 minutes before testing): no effect on seizure threshold
- concentration at 15 min ([1]; blood, 10 mg/kg, ENK6 10 mg/kg s.c. + ENa7 veh, n = 2-3, read-out: Blood concentration): 839 ng/mL
- concentration at 15 min ([1]; blood, 30 mg/kg, ENK6 30 mg/kg s.c. + ENa7 veh, n = 2, read-out: Blood concentration): 1890 ng/mL
- concentration at 15 min ([1]; brain, 10 mg/kg, ENK6 10 mg/kg s.c. + ENa7 veh, n = 2-3, read-out: Brain concentration): 1420 ng/g
- concentration at 15 min ([1]; brain, 30 mg/kg, ENK6 30 mg/kg s.c. + ENa7 veh, n = 2, read-out: Brain concentration): 4500 ng/g
- Blood concentration [1, 2]: 635 ng/mL
- Brain concentration [1, 2]: 1254 ng/g
- Blood concentration [1, 3]: 732 ng/mL
- Brain concentration [1, 3]: 1504 ng/g
- Blood concentration [1, 4]: 1542 ng/mL
- Brain concentration [1, 4]: 3343 ng/g
- Blood concentration [1, 5]: 1481 ng/mL
- Brain concentration [1, 5]: 2484 ng/g
- ED50 (rats; Rattus norvegicus, po, compound alone, 0.1-3.0 mg/kg p.o. as printed, 1 hour post dose, range in brackets as printed, read-out: ED50, reversal of the FCA induced hypersensitivity): 0.4 mg/kg
- reversal of the FCA induced hypersensitivity (rats; compound alone, 0.1-3.0 mg/kg, 1 hour post dose): dose related reversal
- ED20, reversal of the FCA induced hypersensitivity (rats; compound alone, p.o. as printed, from the dose response curve): 0.08 mg/kg
- ED20, reversal of the FCA induced hypersensitivity (rats; compound alone, s.c. (summary of results)): approx 0.08 mg/kg
- effect on the FCA induced hypersensitivity (rats; each compound alone at its ED20 dose (ENa7 0.1 mg/kg p.o.; ENK6 0.08 mg/kg s.c.)): no significant effect

SMILES: Cl.NC(=O)[C@@H]1CC[C@H](c2ccc(OCc3ccccc3F)cc2)N1 [ENa9, (5R)-5-(4-{[(2-fluorophenyl)methyl]oxy}phenyl)-L-prolinamide hydrochloride]
- increase in CC50 (mA) (Male CD rats; [6]): 133%
- increase in CC50 (mA) (Male CD rats; [7]): 323%
- effect on seizure threshold (Male CD rats; [8]): inactive
- effect on seizure threshold (Male CD rats; [9]): small, but significant increase in seizure threshold
- change of blood or brain concentration of the sodium channel blocker in the presence of ENK6 [1]: No increase

SMILES: CN1CC[C@]2(CC[C@H](c3ccc(OCc4ccccc4F)cc3)N2)C1=O.Cl [ENa13, (2R,5R)-2-(4-{[(2-Fluorophenyl)methyl]oxy}phenyl)-7-methyl-1,7-diazaspiro[4.4]nonan-6-one hydrochloride]
- increase in CC50 (mA) (Male CD rats; [6]): 118%
- increase in CC50 (mA) (Male CD rats; [7]): 129%
- effect on seizure threshold (Male CD rats; [8]): inactive
- effect on seizure threshold (Male CD rats; [9]): robust and significant increase in seizure threshold
- concentration at 30 min ([1]; blood, 1 mg/kg, ENK6 veh + ENa13 1 mg/kg s.c., n = 2, read-out: Blood concentration): 499 ng/mL
- concentration at 30 min ([1]; blood, 3 mg/kg, ENK6 veh + ENa13 3 mg/kg s.c., n = 2, read-out: Blood concentration): 1820 ng/mL
- concentration at 30 min ([1]; brain, 1 mg/kg, ENK6 veh + ENa13 1 mg/kg s.c., n = 2, read-out: Brain concentration): 478 ng/g
- concentration at 30 min ([1]; brain, 3 mg/kg, ENK6 veh + ENa13 3 mg/kg s.c., n = 2, read-out: Brain concentration): 1820 ng/g
- change of blood or brain concentration of the sodium channel blocker in the presence of ENK6 [1]: No increase
- Blood concentration [1, 10]: 416 ng/mL
- Brain concentration [1, 10]: 508 ng/g
- Blood concentration [1, 11]: 1160 ng/mL
- Brain concentration [1, 11]: 1235 ng/g

SMILES: Nc1nc(N)c(-c2cccc(Cl)c2Cl)c(CF)n1 [ENa15, R(−)-2,4-diamino-5-(2,3-dichlorophenyl)-6-fluoromethyl pyrimidine methanesulphonate]
- increase in CC50 (mA) (Male CD rats; sodium channel blocker 0.3 mg/kg p.o. in the presence of ENK6 30 mg/kg s.c.): 176%
- increase in CC50 (mA) (Male CD rats; sodium channel blocker 1 mg/kg p.o. in the presence of ENK6 30 mg/kg s.c.): 51%
- effect on seizure threshold (Male CD rats; sodium channel blocker alone, 0.3 mg/kg p.o., 60 minutes before the test): no increase in seizure threshold
- increase in seizure threshold (Male CD rats; sodium channel blocker alone, 1 mg/kg p.o., 60 minutes before the test): 292%
